Reference: PubChem BioAssay (NCI)
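Where inhibition never reached the appropriate level, the endpoint shown equals the highest concentration tested. Otherwise, values were interpolated linearly from a five-concentration, 48-hour dose response in 96-well plates. TGI is the concentration that stops growth completely.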

Assays:
Assay in all cases: NCI-60 cell line screen, 48 h
SF-539 CNS = system: SF-539 CNS
HOP-92 NSCLC = system: HOP-92 NSCLC
K-562 leukemia = system: K-562 leukemia
DU-145 prostate = system: DU-145 prostate
MDA-N = system: MDA-N
SW-620 colon = system: SW-620 colon
HCC-2998 colon = system: HCC-2998 colon
IGROV1 ovarian = system: IGROV1 ovarian
CAKI-1 renal = system: CAKI-1 renal
NCI-H226 lung = system: NCI-H226 lung
786-0 renal = system: 786-0 renal
A549 NSCLC = system: A549 NSCLC
NCI/ADR-RES ovarian = system: NCI/ADR-RES ovarian
MALME-3M melanoma = system: MALME-3M melanoma
SK-MEL-2 melanoma = system: SK-MEL-2 melanoma
SF-295 CNS = system: SF-295 CNS
HOP-62 NSCLC = system: HOP-62 NSCLC
SK-MEL-28 melanoma = system: SK-MEL-28 melanoma
KM12 colon = system: KM12 colon
SK-OV-3 ovarian = system: SK-OV-3 ovarian
HCT-15 colon = system: HCT-15 colon
NCI-H460 lung = system: NCI-H460 lung
EKVX NSCLC = system: EKVX NSCLC
UO-31 renal = system: UO-31 renal
LOX IMVI melanoma = system: LOX IMVI melanoma
SNB-19 CNS = system: SNB-19 CNS
RPMI-8226 leukemia = system: RPMI-8226 leukemia
PC-3 prostate = system: PC-3 prostate
UACC-62 melanoma = system: UACC-62 melanoma
A498 renal = system: A498 renal
NCI-H23 lung = system: NCI-H23 lung
CCRF-CEM leukemia = system: CCRF-CEM leukemia
HT29 colon = system: HT29 colon
MDA-MB-435 = system: MDA-MB-435
SNB-75 CNS = system: SNB-75 CNS
SN12C renal = system: SN12C renal
HCT-116 colon = system: HCT-116 colon
U251 CNS = system: U251 CNS
MOLT-4 leukemia = system: MOLT-4 leukemia
TK-10 renal = system: TK-10 renal
MCF7 breast = system: MCF7 breast
OVCAR-3 ovarian = system: OVCAR-3 ovarian
UACC-257 melanoma = system: UACC-257 melanoma
SF-268 CNS = system: SF-268 CNS
T-47D breast = system: T-47D breast
OVCAR-8 ovarian = system: OVCAR-8 ovarian
COLO 205 colon = system: COLO 205 colon
OVCAR-4 ovarian = system: OVCAR-4 ovarian
RXF 393 renal = system: RXF 393 renal
MDA-MB-231 breast = system: MDA-MB-231 breast
HL-60(TB) leukemia = system: HL-60(TB) leukemia
ACHN renal = system: ACHN renal
SK-MEL-5 melanoma = system: SK-MEL-5 melanoma
SR leukemia = system: SR leukemia
NCI-H522 lung = system: NCI-H522 lung
HS 578T breast = system: HS 578T breast
M14 melanoma = system: M14 melanoma
OVCAR-5 ovarian = system: OVCAR-5 ovarian

## Nc1nnnn1NC(=O)NCCCl
SF-539 CNS
  TGI: > 10 µM
HOP-92 NSCLC
  TGI: > 10 µM
K-562 leukemia
  TGI: > 10 µM
DU-145 prostate
  TGI: > 10 µM
MDA-N
  TGI: > 10 µM
SW-620 colon
  TGI: > 10 µM
HCC-2998 colon
  TGI: > 10 µM
IGROV1 ovarian
  TGI: > 10 µM
CAKI-1 renal
  TGI: > 10 µM
NCI-H226 lung
  TGI: > 10 µM
786-0 renal
  TGI: > 10 µM
A549 NSCLC
  TGI: > 10 µM
NCI/ADR-RES ovarian
  TGI: > 10 µM
MALME-3M melanoma
  TGI: > 10 µM
SK-MEL-2 melanoma
  TGI: > 10 µM
SF-295 CNS
  TGI: > 10 µM
HOP-62 NSCLC
  TGI: > 10 µM
SK-MEL-28 melanoma
  TGI: > 10 µM
KM12 colon
  TGI: > 10 µM
SK-OV-3 ovarian
  TGI: > 10 µM
HCT-15 colon
  TGI: > 10 µM
NCI-H460 lung
  TGI: > 10 µM
EKVX NSCLC
  TGI: > 10 µM
UO-31 renal
  TGI: > 10 µM
LOX IMVI melanoma
  TGI: > 10 µM
SNB-19 CNS
  TGI: > 10 µM
RPMI-8226 leukemia
  TGI: > 10 µM
PC-3 prostate
  TGI: > 10 µM
UACC-62 melanoma
  TGI: > 10 µM
A498 renal
  TGI: > 10 µM
NCI-H23 lung
  TGI: > 10 µM
CCRF-CEM leukemia
  TGI: > 10 µM
HT29 colon
  TGI: > 10 µM
MDA-MB-435
  TGI: > 10 µM
SNB-75 CNS
  TGI: > 10 µM
SN12C renal
  TGI: > 10 µM
HCT-116 colon
  TGI: > 10 µM
U251 CNS
  TGI: > 10 µM
MOLT-4 leukemia
  TGI: > 10 µM
TK-10 renal
  TGI: > 10 µM
MCF7 breast
  TGI: > 10 µM
OVCAR-3 ovarian
  TGI: > 10 µM
UACC-257 melanoma
  TGI: > 10 µM
SF-268 CNS
  TGI: > 10 µM
T-47D breast
  TGI: > 10 µM
OVCAR-8 ovarian
  TGI: > 10 µM
COLO 205 colon
  TGI: > 10 µM
OVCAR-4 ovarian
  TGI: > 10 µM
RXF 393 renal
  TGI: > 10 µM
MDA-MB-231 breast
  TGI: > 10 µM
HL-60(TB) leukemia
  TGI: > 10 µM
ACHN renal
  TGI: > 10 µM
SK-MEL-5 melanoma
  TGI: > 10 µM
SR leukemia
  TGI: > 10 µM
NCI-H522 lung
  TGI: > 10 µM
HS 578T breast
  TGI: > 10 µM
M14 melanoma
  TGI: > 10 µM

## COc1ccc(C=C2C(=O)NC(=S)NC2=O)c2ccccc12
SF-539 CNS
  TGI: 57.7 µM
HOP-92 NSCLC
  TGI: > 100 µM
K-562 leukemia
  TGI: > 100 µM
DU-145 prostate
  TGI: 64.7 µM
MDA-N
  TGI: 40.6 µM
SW-620 colon
  TGI: > 100 µM
HCC-2998 colon
  TGI: > 100 µM
IGROV1 ovarian
  TGI: > 100 µM
CAKI-1 renal
  TGI: > 100 µM
NCI-H226 lung
  TGI: 0.7 µM
786-0 renal
  TGI: > 100 µM
NCI/ADR-RES ovarian
  TGI: > 100 µM
SK-MEL-2 melanoma
  TGI: 66.5 µM
SF-295 CNS
  TGI: > 100 µM
HOP-62 NSCLC
  TGI: > 100 µM
SK-MEL-28 melanoma
  TGI: > 100 µM
KM12 colon
  TGI: > 100 µM
SK-OV-3 ovarian
  TGI: > 100 µM
HCT-15 colon
  TGI: > 100 µM
NCI-H460 lung
  TGI: > 100 µM
EKVX NSCLC
  TGI: > 100 µM
UO-31 renal
  TGI: > 100 µM
LOX IMVI melanoma
  TGI: > 100 µM
RPMI-8226 leukemia
  TGI: > 100 µM
PC-3 prostate
  TGI: 83.3 µM
A498 renal
  TGI: 0.479 µM
NCI-H23 lung
  TGI: > 100 µM
CCRF-CEM leukemia
  TGI: > 100 µM
HT29 colon
  TGI: 77.3 µM
MDA-MB-435
  TGI: > 100 µM
OVCAR-5 ovarian
  TGI: > 100 µM
HCT-116 colon
  TGI: > 100 µM
U251 CNS
  TGI: 83.3 µM
MOLT-4 leukemia
  TGI: > 100 µM
TK-10 renal
  TGI: 58.2 µM
MCF7 breast
  TGI: > 100 µM
OVCAR-3 ovarian
  TGI: 75.7 µM
UACC-257 melanoma
  TGI: 41.5 µM
SF-268 CNS
  TGI: > 100 µM
T-47D breast
  TGI: > 100 µM
OVCAR-8 ovarian
  TGI: > 100 µM
OVCAR-4 ovarian
  TGI: > 100 µM
RXF 393 renal
  TGI: 51.1 µM
MDA-MB-231 breast
  TGI: > 100 µM
HL-60(TB) leukemia
  TGI: 52 µM
ACHN renal
  TGI: > 100 µM
SK-MEL-5 melanoma
  TGI: > 100 µM
SR leukemia
  TGI: 87.1 µM
NCI-H522 lung
  TGI: > 100 µM
HS 578T breast
  TGI: 60.9 µM
M14 melanoma
  TGI: > 100 µM

## Cc1cc2nn(C3CCCO3)nc2cc1C (stereo unspecified)
SF-539 CNS
  TGI: > 100 µM
K-562 leukemia
  TGI: > 100 µM
DU-145 prostate
  TGI: > 100 µM
MDA-N
  TGI: > 100 µM
HCC-2998 colon
  TGI: > 100 µM
IGROV1 ovarian
  TGI: > 100 µM
CAKI-1 renal
  TGI: > 100 µM
NCI-H226 lung
  TGI: > 100 µM
786-0 renal
  TGI: > 100 µM
A549 NSCLC
  TGI: > 100 µM
NCI/ADR-RES ovarian
  TGI: > 100 µM
MALME-3M melanoma
  TGI: > 100 µM
SK-MEL-2 melanoma
  TGI: > 100 µM
SF-295 CNS
  TGI: > 100 µM
HOP-62 NSCLC
  TGI: > 100 µM
SK-OV-3 ovarian
  TGI: > 100 µM
HCT-15 colon
  TGI: > 100 µM
NCI-H460 lung
  TGI: > 100 µM
EKVX NSCLC
  TGI: > 100 µM
PC-3 prostate
  TGI: > 100 µM
UACC-62 melanoma
  TGI: > 100 µM
A498 renal
  TGI: > 100 µM
NCI-H23 lung
  TGI: > 100 µM
CCRF-CEM leukemia
  TGI: > 100 µM
HT29 colon
  TGI: > 100 µM
MDA-MB-435
  TGI: > 100 µM
SNB-75 CNS
  TGI: > 100 µM
OVCAR-5 ovarian
  TGI: > 100 µM
SN12C renal
  TGI: > 100 µM
HCT-116 colon
  TGI: > 100 µM
U251 CNS
  TGI: > 100 µM
MOLT-4 leukemia
  TGI: > 100 µM
TK-10 renal
  TGI: > 100 µM
MCF7 breast
  TGI: > 100 µM
OVCAR-3 ovarian
  TGI: > 100 µM
UACC-257 melanoma
  TGI: > 100 µM
SF-268 CNS
  TGI: > 100 µM
T-47D breast
  TGI: > 100 µM
OVCAR-8 ovarian
  TGI: > 100 µM
COLO 205 colon
  TGI: > 100 µM
OVCAR-4 ovarian
  TGI: > 100 µM
RXF 393 renal
  TGI: > 100 µM
MDA-MB-231 breast
  TGI: > 100 µM
SK-MEL-5 melanoma
  TGI: > 100 µM
SR leukemia
  TGI: > 100 µM
NCI-H522 lung
  TGI: > 100 µM
HS 578T breast
  TGI: > 100 µM
M14 melanoma
  TGI: > 100 µM
